Entries after “also recorded” stand apart in the source; their conditions may differ.
Tests used:
[1] = system: X-ray irradiated mice; experiment: Radiation dermatitis murine model (thoracic X-ray irradiation); assay type: in vivo, C57BL/6 mice
Experimental: Sham irradiated mice without wounds were used as controls for radiation dermatitis, and treated identically as irradiated mice. Wounded mice, without radiation, were used as controls for combined injury.
Animals were irradiated in the RS2000 small animal irradiator. The RS2000 provides a cone-shaped radiation field with irradiation at 12.39-40.50 cm from the X-ray source. For dose measurements, irradiation was performed with the following settings: 160 kVp, 25 mA, 90 s irradiation time and 0.3 mm Cu beam filtration. The approximate HVL provided by the manufacturer was 0.62 mm Cu. […] A custom lead shield was placed on the floor of the irradiator, with the mouse thoracic region ˜43.75 cm from the X-ray source. Dose measurements were conducted twice to account for set-up error and reproducibility. […] The dose rate was reported for each aperture position 1-4 as an absorbed dose rate to water (ADRW, Gy/min) and the two repeated measurements were averaged.
Mice (12-14 weeks of age) were anesthetized using inhaled anesthesia (isoflurane), and the fur was clipped on the dorsal side of the thoracic region. […] Animals were then anesthetized with injected anesthesia (150 mg/kg ketamine/18 mg/kg xylazine) and placed in Lucite jigs for exposure to 16.5 Gy thoracic irradiation in the RS2000 X-ray irradiator as previously described [19].
TSN6 peptide (5 μg/day in 50 μl sterile saline) or hepatocyte growth factor (HGF; 3.3 μg/day in 50 μl sterile saline) or vehicle (sterile saline, 50 μl) were injected subcutaneously on days 2, 7 and 10 post-irradiation. Injections were made caudal, adjacent to the irradiated or irradiated/wounded area.
Animals were monitored daily for 85 days post-irradiation for both radiation dermatitis and combined injury models. Radiation dermatitis was separately scored for hair loss, erythema, scale, and ulceration. Scoring for erythema, scale and ulceration were previously described: 0=none; 1=minimal; 2=mild; 3=moderate; 4=marked [19]. Because all animals underwent fur clipping prior to irradiation and wounding, scoring for hair loss was determined as failure to regrow hair in the irradiated areas: 0=none; 1=minimal; 2=mild; 3=moderate; 4=marked. Animals were photographed for the measurement of wounds and for dermatitis scoring. […] Weight was measured as an indication of overall health.

[2] = system: human hair follicle formation in grafted DECs; experiment: Dermal-epidermal composites (DECs) grafted onto nude mice; assay type: in vivo, NIH(S)-nu/nu female mice
Experimental: We next asked if TNS peptides could increase human hair follicle formation in grafted dermal-epidermal composite cultures. Human dermal papilla cells isolated from temporal scalp dermis and propagated in vitro. Normal foreskin keratinocytes (NFK) were isolated from neonatal foreskins (pooled from 5-7 donors) and were cultured in serum-free medium supplemented with EGF and bovine pituitary extract. Dermal epidermal composites (DECs) were prepared with human dermal papilla cells and NFK and were grafted onto nude mice. Imaging was done at 4 weeks, 6 weeks, 8 weeks, 10 weeks and 12 weeks and staining for hHLA was performed to evaluate hair follicle anatomy (FIG. 3). TSN peptides increased hair follicle generation (FIG. 3) as well as increased epidermal proliferation in vivo (FIG. 4).
Dermal-epidermal composites and grafting: Human dermal papilla cells isolated from temporal scalp dermis (Promocell, Heidelberg, Germany) from a donor (HDP47) were propagated in vitro according to manufacturer's recommendations. Normal foreskin keratinocytes (NFK) were isolated from neonatal foreskins (pooled from 5-7 donors) and were cultured in serum-free medium (Keratinocyte-SFM, Invitrogen), supplemented with EGF and bovine pituitary extract according to manufacturer's recommendation. Dermal epidermal composites (DECs) were prepared with human dermal papilla cells and NFK and were grafted onto nude mice. […]

[3] = 16.5 Gy, s.c. days 2, 7, 10 post-irradiation, TSN6 5 μg/day, HGF 3.3 μg/day, vs vehicle
[4] = skin 83 days post-irradiation, radiation alone

HSPDIQLQKGLTFEPIQIK [TSN6, 19 amino acid peptide derived from multimerin-1, Coiled coil domain]
combined scores of radiation skin effects ([1]; 16.5 Gy, TSN6 5 μg/day s.c. days 2, 7, 10 (FIG. 5E)): marked reduction
erythema score [1, 3]: mitigated
hair loss score [1, 3]: mitigated
radiation dermatitis (overall measures) [1, 3]: mitigated; also recorded: Mitigation of radiation dermatitis
scale score [1, 3]: mitigated
adipose layer in H&E histological sections [1, 4]: preservation of the adipose layer
epidermal thickening in H&E histological sections [1, 4]: reduction of the epidermal thickening
hair follicles within the irradiated area (histology) [1, 4]: restoration of hair follicles
epidermal proliferation in vivo (Ki-67+ cells in epidermis of grafts) ([2]; 1 μM peptide vs scrambled, P=0.08 (FIG. 4)): stimulates epidermal proliferation
human hair follicle formation in grafted DECs ([2]; 12 weeks after grafting, human HLA staining, vs TSN6-scrambled (FIG. 3)): increases human hair follicle formation

From patent publication US20250276999A1, “PEPTIDES FOR PROMOTING HAIR FOLLICLE NEOGENESIS, AND PREVENTION/MITIGATION OF UNTOWARD EFFECTS OF RADIATION TREATMENT” (Trustees of Tufts College, priority 2022, published 2025)
